What was measured:
day 7 skin wound = assay: In vivo playoff of custom-made phage library with microdialysis recovery and HTS in rat skin wound model; conditions: for Liver Count: HTS reads in liver after 1 h circulation and perfusion; for Wound without probe Count: HTS reads in wound tissue after 1 h circulation and perfusion; for Normal skin microdialysate Count / Wound microdialysate Count: HTS reads; for Normal skin microdialysate Count: probe under normal skin; for Normal skin microdialysate Count / Wound microdialysate Count / Wound microdialysate %: dialysate collected 1 h; for Wound microdialysate Count / Wound microdialysate %: rat; for Wound microdialysate Count: i.v. tail vein, 3-MDa probe under day 7 wound; for Liver %: share of HTS reads in liver after 1 h circulation and perfusion; for Wound without probe %: share of HTS reads in wound tissue after 1 h circulation and perfusion; for Wound microdialysate %: share of HTS reads, i.v.
Description: We next tested the applicability of the microdialysis-based system for extravascular phage recovery in the rat wound model. In the initial proof-of-concept studies, we used an in vivo “playoff” approach that allows parallel auditioning of the performance of peptide phages in low-complexity mixtures ([Pleiko et al, 2021]). Wound-bearing rats were dosed with a pool of phages displaying peptides known to home to angiogenic vessels and penetrate tissues, CAR (amino acid sequence CARSKNKDC) and iRGD (CRGDKGPDC). The CAR peptide uses a heparan sulfate proteoglycan (syndecan-4)–dependent pathway for the wound homing and penetration ([Järvinen & Ruoslahti, 2007], [2010]; [Maldonado et al, 2023]), whereas iRGD first homes to αv integrins in angiogenic vasculature followed by proteolytic cleavage of the peptide and binging to neuropilin-1, which activates a trans-tissue transport pathway, the CendR pathway ([Sugahara et al, 2009], [2010]; [Teesalu et al, 2009]). […] Peptides lacking tissue-penetrating properties were included as controls. The CRK (CRKDKC) peptide homes to angiogenic blood vessels, but remains bound to the blood vessels ([Järvinen & Ruoslahti, 2007]; [Agemy et al, 2010]). The test pool also included peptide phage clones identified during an in vivo phage display screen for peptides homing to skin wounds but not selected for further analysis at that time ([Järvinen & Ruoslahti, 2007]). As negative controls, we included phages from a naïve peptide phage library that display random peptides.
Microdialysis probes with 3-MDa cutoff were implanted under the center of a day 7 skin wound (peak of angiogenesis) in rats, or under normal skin (Fig S2). Care was taken not to rupture blood vessels during the probe insertion, and a proper probe location was confirmed at the end of the experiment. After insertion, the microdialysis device was run for 45 min to allow the local flow inside the catheter to be established (manufacturer’s recommendation) ([Joukhadar & Müller, 2005]; [Chaurasia et al, 2007]), followed by intravenous injection of the phage cocktail, and sampling of wound and control dialysates for 60 min. Subsequently, the animals were perfused to remove free phages, and wounds and control organs were collected for further analysis. […] No phages (including CAR and iRGD phages) were detected in the dialysates placed in the intact normal skin (Table 1).
The custom-made phage library for the in vivo validation was cloned on T7 415-1 backbone, grown in BL21 E. coli strain, and filter-sterilized. The phages were either cloned as described previously or picked randomly from a phage library ([Järvinen & Ruoslahti, 2007]; [Teesalu et al, 2009]; [Pemmari et al, 2020a]). Each phage clone was sequenced. The custom-made library was made by mixing an equal amount of each phage (titer 5 × 10^9).
(§1) For the in vivo microdialysis, CMA 402 Syringe Pump with Hamilton syringes was used to push and the Harvard P70 peristaltic pump (Harvard Apparatus) to pull the CMA perfusion fluid (CMA Microdialysis AB) and dialysate. Each of the CMA 402 two outputs was connected to the inlet spike of the CMA 12 custom-made 3-MDa probe (CMA Microdialysis AB) via CMA FEP tubing (CMA Microdialysis AB), and the outlet spike of the CMA 12 probe was further connected to Harvard P70 peristaltic pump and further to CMA Probe Shaft Clip (CMA Microdialysis AB) via CMA connector tubing (CMA Microdialysis AB). From the CMA Probe Shaft Clip, the dialysate was pumped into CMA sample tubes (CMA Microdialysis AB). Harvard 0.19-mm-diameter tubing (Harvard Apparatus) and Harvard 3 collar 1.52-mm tubing (Harvard Apparatus) were used with the Harvard P70 peristaltic pump. In addition, CMA tubing adaptors (CMA Microdialysis AB) were used for connecting tubes to syringes and probes. The system was flushed with 70% ethanol before any use.
Male Wistar rats were used for the in vivo validation experiment and the library screen. The rats were 27 wk old and weighed 490 g. […]

CHO-K cells = assay: Peptide internalization in vitro, confocal imaging, CHO-K cells; format: cell-based, Chinese hamster; conditions: FAM-labeled peptide 20 μM, 3 h, 37°C, confocal fluorescence imaging, representative of three experiments
Description: Figure 1. Microdialysis-captured peptides penetrate the cell membrane. […] CHO-K cells were grown on chamber slides. […] The scale bar is 20 μm. Images are representative of three individual experiments.
Plain growth medium was used as a negative control.

day 7 skin wounds = assay: In vivo phage display screen of naive CX7C T7 library using microdialysis and HTS; parameters: species or system rat; conditions: for Total counts / First hour (counts) / Second hour (counts): wound microdialysate; for Total counts: first 2 h; for First hour (counts): first hour after library injection, rat 7-d-old wound; for First hour (counts) / Second hour (counts): Ion Torrent HTS; for Second hour (counts): second hour after library injection
Excerpt: We next adopted microdialysis-based biopanning to identify new wound-penetrating peptides. We used a CX7^trinucC peptide T7 phage library (diversity 3.9 × 10^8) in which random amino acids are encoded by equally represented trinucleotides to prevent codon bias ([Pleiko et al, 2021]). The library was cloned into the genome of the T7 bacteriophage engineered for longer circulation half-life and reduced liver uptake ([Hodyra-Stefaniak et al, 2019]). For biopanning, 3.9 × 10^10 phages (∼100 copies of each phage clone) displaying the C7X^trinucC library were injected in the tail vein of rats with day 7 skin wounds. Microdialysates were collected from probes placed in wounds or normal skin (Table S1). Most of the phage recovery at the microdialysis probe happened during the first 2 h after library dosing. The wound dialysates yielded almost all phages introduced into the two microdialysis probes, only one phage clone was recovered from normal skin dialysate (Table S1). We observed that most of the peptide phage clones appeared in the microdialysate during the first 2 h after phage dosing (Table S1). To obtain representative tissue biodistribution of phage clones in relation to dialysates, the skin wound–bearing rats with no inserted dialysis probes were dosed with the naïve CX7^trinucC peptide library, followed by 30-min circulation, perfusion, collection of organs, and analysis of peptide landscapes. The two dialysates collected during the first 2 h were subjected to HTS (Table S2). Whole tissue samples from the wound with and without the probe (1 + 5 wounds) at 30 min and 5 h, as well as control samples from 14 different tissues (2 × 14) and from normal skin (1 x with and 2 x without probe), and two serum samples at the time of euthanasia (30 min and 5 h after the library injection) were subjected to HTS. […] However, the wound microdialysates contained 13 enriched peptide sequences (Table 2). […] A BLAST analysis on candidate peptide sequences was used to scan for sequence homologies with proteins related to angiogenesis, endocytosis, and wound healing (Table S3).
The phage library used in the in vivo screen with the microdialysis probe was in the 10-3b T7 backbone (5–15 peptide copies per phage), grown in BLT5403 E. coli strain, CsCl-purified, dialyzed in PBS, and filter-sterilized. The library was constructed via trinucleotide synthesis to prevent bias in the amount of different amino acids ([Kayushin et al, 1996]). The diversity of the library was 1 × 10^9 and the titer 5 × 10^10 per ml.
as §1
Male Wistar rats were used for the in vivo validation experiment and the library screen. The rats were 27 wk old and weighed 490 g. Two full-thickness circular wounds were created on a shaved and disinfected skin with a 12-mm-diameter biopsy punch and scissors under sevoflurane anesthesia (Sevoflurane Baxter, Baxter SA) and carprofen analgesia ([…]; Norocarp, Norbrook Laboratories). […]

Row | Substance | Liver Count (day 7 skin wound) | Wound without probe Count (day 7 skin wound) | Normal skin microdialysate Count (day 7 skin wound) | Wound microdialysate Count (day 7 skin wound) | Liver % (day 7 skin wound) | Wound without probe % (day 7 skin wound) | Wound microdialysate % (day 7 skin wound) | cellular uptake in CHO-K cells (CHO-K cells) | Total counts (day 7 skin wounds) | First hour (counts) (day 7 skin wounds) | Second hour (counts) (day 7 skin wounds) | detection in skin wound tissue samples (day 7 skin wounds; HTS of whole wound tissue samples)
1 | CAELNDGLC [T7 phage clone of the custom-made library] | 1,851 | 1,082 | 0 | 0 | 0.70% | 4.98% | 0% |  |  |  |  | 
2 | CARSKNKDC [CARSKNKDC (CAR), T7 phage clone displaying known wound-homing, tissue-penetrating peptide CAR] | 29,894 | 1,614 | 0 | 17,713 | 11.34% | 7.43% | 94.74% |  |  |  |  | 
3 | CARSKNKDC [FAM-labeled synthetic CAR peptide (…), known cell- and tissue-penetrating homing peptide, reference compound] |  |  |  |  |  |  |  | accumulate in the CHO-K cells |  |  |  | 
4 | CDDYQQISC |  |  |  |  |  |  |  |  | 21 counts | 10 counts | 11 counts | 
5 | CERESTKIC [T7 phage clone of the custom-made library] | 93,283 | 3,133 | 0 | 0 | 35.39% | 14.42% | 0% |  |  |  |  | 
6 | CFCQLMYQC |  |  |  |  |  |  |  |  | 13 counts | 8 counts | 5 counts | 
7 | CKKNEINNC |  |  |  |  |  |  |  |  | 16 counts | 6 counts | 10 counts | found in one skin wound sample
8 | CKMLYEYHC |  |  |  |  |  |  |  |  | 18 counts | 1 counts | 17 counts | 
9 | CKSVKNREC [T7 phage clone of the custom-made library] | 108,554 | 14,429 | 2,473 | 0 | 41.18% | 66.39% | 0% |  |  |  |  | 
10 | CLLGKNNSC [T7 phage clone of the custom-made library] | 785 | 0 | 0 | 0 | 0.30% | 0% | 0% |  |  |  |  | 
11 | CLLIYNWSC |  |  |  |  |  |  |  |  | 17 counts | 14 counts | 3 counts | 
12 | CLSQTYRIC |  |  |  |  |  |  |  |  | 21 counts | 19 counts | 2 counts | 
13 | CLTVLSEQC |  |  |  |  |  |  |  |  | 15 counts | 8 counts | 7 counts | 
14 | CNGSALPVC [T7 phage clone of the custom-made library] | 3,300 | 0 | 0 | 0 | 1.25% | 0% | 0% |  |  |  |  | 
15 | CNYLVEKNC |  |  |  |  |  |  |  |  | 23 counts | 14 counts | 9 counts | 
16 | CPKKHHLDC |  |  |  |  |  |  |  |  | 42 counts | 19 counts | 23 counts | 
17 | CRGDKGPDC [CRGDKGPDC (iRGD), T7 phage clone displaying tissue-penetrating homing peptide iRGD] | 8,709 | 1,172 | 0 | 984 | 3.30% | 5.39% | 5.26% |  |  |  |  | 
18 | CRKDKC [CRKDKC (CRK), T7 phage clone displaying CRK peptide, homes to angiogenic vessels, lacks tissue penetration] | 17,235 | 303 | 0 | 0 | 6.54% | 1.39% | 0% |  |  |  |  | 
19 | CRMKFYSEYC |  |  |  |  |  |  |  |  | 11 counts | 2 counts | 9 counts | 
20 | CYHDTYPNC |  |  |  |  |  |  |  |  | 28 counts | 14 counts | 14 counts | 
21 | CYWEDKNLC |  |  |  |  |  |  |  |  | 15 counts | 6 counts | 9 counts | 
